# Ends that are not written are not given here.
# Assays:
# metastatic melanoma = conditions: cited from earlier work
# [1] = test system: stage IV melanoma characterized by distant unresectable metastases; experiment: Phase II clinical trial, tumor response by RECIST criteria; assay type: in vivo, human; conditions: preliminary analysis on 142 patients; higher doses of Tα1
# Method: Trial Design phase II, randomized, stratified, open-study testing different doses of Tα1 in association with DTIC and IFNα, as first line therapy for stage IV melanoma patients characterized by distant unresectable metastases (AJCC; Journal of Clinical Oncology 2001, 19: 3635-3648) without brain metastases. The primary study end-point was tumor response, and the following combination composition were used: • DTIC (800 mg/m^2)+IFNα (3 MIU)+Tα1 (1.6 mg) (97 pts); • DTIC (800 mg/m^2)+IFNα (3 MIU)+Tα1 (3.2 mg) (97 pts); • DTIC (800 mg/m^2)+Tα1 (3.2 mg) (98 pts); • DTIC (800 mg/m^2)+IFNα (3 MIU) (94 pts);
# The five groups were analyzed independently one another within the so-called “pick the winner” strategy.
# Methods: Recycling every 28 days, patients were administered DTIC (800 mg/m^2) i.v. at day 1, Tα1 (1.6, 3.2 or 6.4 mg) s.c. at days 8-11 and 15-18, and IFNα (3 MIU) s.c. at day 11 and 18. Clinical response was evaluated every two cycles according to RECIST criteria (New Guidelines to Evaluate the Response to Treatment in Solid Tumors; Journal of the National Cancer Institute, 2000. 92: 205-216) utilizing a central reader.
# The randomized patients were stratified according to the disease site: M1a, M1b or M1c level.
# 1) Patients with cutaneous, subcutaneous and/or limphnodal metastases with normal serum LDH value (from 96 to 460 U/L) were classified as M1a. […]
# lymphosarcoma cells = conditions: BALB/c mice; cited from earlier work
# [2] = test system: human non-small cell lung cancer (NSCLC) cells; conditions: subcutaneous, 1 or 10 mg per day; nude mice inoculated with human NSCLC cells; cited from earlier work
# [3] = DTIC alone, metastatic melanoma
Compound,"actual overall responses (metastatic melanoma; DTIC alone, metastatic melanoma, J Clin Oncol and ASCO proceedings 2004)",duration of responses (short-lived) (metastatic melanoma; [3]),effect of responses on patients' overall survival (metastatic melanoma; [3]),"DTIC efficacy (metastatic melanoma; literature population similar to 16% M1a, 25% M1b, 59% M1c)",dose-response effect on tumor response [1],liver and lung metastases (lymphosarcoma cells),local sarcoma growth (lymphosarcoma cells),tumor volume [2]
"CN(C)/N=N/c1[nH]cnc1C(N)=O [DTIC, Dacarbazine]",5.5-6.8%,three to six,no evidence that these responses have any effect on the patients' overall survival,5%,,,,
"thymosin alpha 1 (SDAAVDTSSEITTKDLKEKKEVVEEAEN; ends and bridges not checked; UniProt P06454 2-29, looked up) [a compound well known in the medical field]",,,,,clear dose-response effect,significantly reduced,significantly reduced,significantly decreased

# — patent US20090186000A1, “USE OF THYMOSIN ALPHA 1 FOR PREPARING A MEDICAMENT FOR THE TREATMENT OF STAGE IV MALIGNANT MELANOMA” (SIGMA-TAU INDUSTRIE FARMACEUTICHE RIUNITE S.P.A., priority 2006, published 2009)
